According to PubChem BioAssay (NCI):
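Cells were grown in 96-well plates and exposed to each compound for 48 hours at five concentrations; endpoints were interpolated linearly between bracketing concentrations, or set to the highest concentration if not reached. At the GI50, growth is halved. TGI denotes the concentration required for complete inhibition of growth.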

Assays:
Assay in all cases: NCI tumour cell line growth inhibition, 48 h
TK-10 renal = tested on: TK-10 renal
NCI-H522 lung = tested on: NCI-H522 lung
MOLT-4 leukemia = tested on: MOLT-4 leukemia
SNB-19 CNS = tested on: SNB-19 CNS
HCT-116 colon = tested on: HCT-116 colon
T-47D breast = tested on: T-47D breast
SNB-75 CNS = tested on: SNB-75 CNS
M14 melanoma = tested on: M14 melanoma
NCI-H460 lung = tested on: NCI-H460 lung
UO-31 renal = tested on: UO-31 renal
CCRF-CEM leukemia = tested on: CCRF-CEM leukemia
PC-3 prostate = tested on: PC-3 prostate
KM12 colon = tested on: KM12 colon
HCT-15 colon = tested on: HCT-15 colon
MDA-MB-435 = tested on: MDA-MB-435
A498 renal = tested on: A498 renal
BT-549 breast = tested on: BT-549 breast
OVCAR-3 ovarian = tested on: OVCAR-3 ovarian
HOP-62 NSCLC = tested on: HOP-62 NSCLC
SK-MEL-5 melanoma = tested on: SK-MEL-5 melanoma
NCI-H23 lung = tested on: NCI-H23 lung
A549 NSCLC = tested on: A549 NSCLC
SF-268 CNS = tested on: SF-268 CNS
SN12C renal = tested on: SN12C renal

## C=C1C(=O)O[C@H]2[C@H]1CC/C(COC(=O)CCCC(=O)OC/C1=C/CC[C@@]3(C)O[C@H]3[C@H]3OC(=O)C(=C)[C@@H]3CC1)=C\CC[C@@]1(C)O[C@@H]21
TK-10 renal
  GI50: 1530 nM
  TGI: 3040 nM
NCI-H522 lung
  GI50: 678 nM
  TGI: 2340 nM
MOLT-4 leukemia
  GI50: 396 nM
  TGI: 2070 nM
SNB-19 CNS
  GI50: 2910 nM
  TGI: 14400 nM
HCT-116 colon
  GI50: 1290 nM
  TGI: 2570 nM
T-47D breast
  GI50: 1190 nM
  TGI: 3810 nM
SNB-75 CNS
  GI50: 2840 nM
  TGI: > 100000 nM
M14 melanoma
  GI50: 1720 nM
  TGI: 4510 nM
NCI-H460 lung
  GI50: 3180 nM
  TGI: 12700 nM
UO-31 renal
  GI50: 1110 nM
  TGI: 2310 nM
CCRF-CEM leukemia
  GI50: 281 nM
  TGI: 757 nM
PC-3 prostate
  GI50: 2860 nM
  TGI: 8370 nM
KM12 colon
  GI50: 2240 nM
  TGI: 6850 nM
HCT-15 colon
  GI50: 814 nM
  TGI: 2350 nM
MDA-MB-435
  GI50: 1690 nM
  TGI: 5180 nM
A498 renal
  GI50: 5580 nM
  TGI: 19000 nM
BT-549 breast
  GI50: 1370 nM
  TGI: 2950 nM
OVCAR-3 ovarian
  GI50: 401 nM
  TGI: 1520 nM
HOP-62 NSCLC
  GI50: 3310 nM
  TGI: 16000 nM
SK-MEL-5 melanoma
  GI50: 2250 nM
  TGI: 5680 nM
NCI-H23 lung
  GI50: 2280 nM
  TGI: 6670 nM
A549 NSCLC
  GI50: 4460 nM
  TGI: 41700 nM
SF-268 CNS
  GI50: 2770 nM
  TGI: 15100 nM
SN12C renal
  GI50: 2300 nM
